Source: the supplement of paper PMC10307832

How the values were obtained:
Assay in all cases: relative viability (nuclei count vs DMSO), 5 days (fraction); higher = more cells survive
[1] = compound: C1CNCCC1C2=CC(=NN2)C3=CC=NC=C3 + CC(C)C[C@H](NC(=O)[C@H](Cc1ccccc1)NC(=O)c1cnccn1)B(O)O [Bortezomib] (partner 0.002 µM)
Outline: (§1)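 A single step with final 0.05% Triton X-100, 1% formaldehyde and 1 ug/ml Hoechst fixed the cells and stained nuclei 5 days after treatment. Lung cancer cell lines in 1536-well plates had been treated by pin tool the day after seeding with one drug alone or a fixed anchor-drug dose plus five library-drug doses (not always all listed) in √10 steps, and nuclei were counted on 4× images. Relative viability is the ratio of nuclei in treated wells to nuclei in vehicle wells, taken as the median of duplicate plates.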

[2] = compound: C[C@@H](N)c1ccc(C(=O)Nc2ccnc3[nH]ccc23)cc1 + C[C@]1(O)C[C@@H](c2nc(-c3ccc4ccc(-c5ccccc5)nc4c3)c3c(N)nccn32)C1 [Linsitinib] (partner 1 µM)
Outline: as §1

Tanzisertib + OSI-027 = compound: O[C@H]1CC[C@H](Nc2ncc3nc(Nc4c(F)cc(F)cc4F)n([C@H]4CCOC4)c3n2)CC1 [Tanzisertib] + COc1cccc2cc(-c3nc([C@H]4CC[C@H](C(=O)O)CC4)n4ncnc(N)c34)[nH]c12 [OSI-027] (partner 0.5 µM)
Outline: as §1

[3] = compound: C1CNCCC1C2=CC(=NN2)C3=CC=NC=C3 + CC(=O)c1c(C)c2cnc(Nc3ccc(N4CCNCC4)cn3)nc2n(C2CCCC2)c1=O [Palbociclib] (partner 0.5 µM)
Outline: as §1

Cell Line | relative viability ([1]; first compound 0.08 µM) | relative viability ([1]; first compound 0.8 µM) | relative viability ([1]; first compound 2.53 µM) | relative viability ([1]; first compound 8 µM) | relative viability ([2]; first compound 0.04 µM) | relative viability ([2]; first compound 0.1265 µM) | relative viability ([2]; first compound 0.4 µM) | relative viability ([2]; first compound 1.265 µM) | relative viability ([2]; first compound 4 µM) | relative viability (Tanzisertib + OSI-027; first compound 0.08 µM) | relative viability (Tanzisertib + OSI-027; first compound 0.253 µM) | relative viability (Tanzisertib + OSI-027; first compound 0.8 µM) | relative viability (Tanzisertib + OSI-027; first compound 2.53 µM) | relative viability (Tanzisertib + OSI-027; first compound 8 µM) | relative viability ([3]; first compound 0.08 µM) | relative viability ([3]; first compound 0.8 µM) | relative viability ([3]; first compound 2.53 µM) | relative viability ([3]; first compound 8 µM)
LXF-289 | 1.05 | 1.14 | 0.968 | 0.962 | 1.02 | 0.995 | 0.997 | 1.09 | 0.88 | 0.801 | 0.818 | 0.76 | 0.856 | 0.644 | 0.599 | 0.644 | 0.646 | 0.58
NCI-H23 | 0.729 | 0.866 | 1.1 | 1.24 | 0.665 | 0.641 | 0.779 | – | 0.519 | 0.587 | 0.547 | 0.575 | 0.747 | 0.198 | 0.444 | – | 0.602 | 0.647
NCI-H322M | 1.27 | 1.19 | 1.39 | 1.29 | 1.02 | 1.12 | 0.93 | – | 1.1 | 0.636 | 0.623 | 0.539 | 0.6 | 0.538 | 0.489 | 0.425 | 0.468 | 0.508
NCI-H441 | – | 0.764 | 0.609 | 0.269 | 0.626 | 0.571 | 0.64 | 0.483 | 0.45 | 0.855 | 0.505 | 0.467 | 0.444 | 0.403 | 0.227 | 0.222 | 0.251 | 0.22
NCI-H460 | 0.892 | 1.49 | 1.06 | 1.12 | 0.857 | 0.729 | 0.823 | 0.954 | 0.599 | 0.664 | 0.683 | 0.549 | 0.624 | 0.502 | 0.105 | 0.179 | 0.315 | 0.303
NCI-H520 | 0.365 | 0.558 | 0.559 | 0.573 | 0.97 | 1.07 | 1.05 | 1.26 | 1.02 | 0.328 | 0.246 | 0.238 | 0.262 | 0.304 | 0.176 | 0.167 | 0.219 | 0.147
NCI-H647 | 0.935 | 0.796 | 1.07 | 0.86 | 1.14 | 1.18 | 1.22 | 1.28 | 0.976 | 0.694 | 0.644 | 0.569 | 0.63 | 0.69 | 0.354 | 0.387 | 0.49 | 0.458
NCI-H650 | 0.803 | 0.689 | 0.949 | 0.734 | 0.723 | 0.751 | 0.841 | – | 0.658 | 0.517 | 0.661 | 0.508 | 0.624 | 0.441 | 0.334 | 0.352 | 0.4 | 0.406
NCI-H661 | 0.916 | 0.825 | 0.801 | 1.01 | 0.558 | 0.582 | 0.623 | 0.441 | 0.508 | 0.771 | 0.741 | 0.615 | 0.704 | 0.655 | 0.416 | 0.394 | 0.394 | 0.417
NCI-H727 | 0.842 | 0.829 | 1.14 | 0.911 | 0.135 | 0.559 | 0.493 | 0.736 | 0.785 | 0.618 | 0.564 | 0.643 | 0.483 | 0.647 | 0.627 | 0.685 | 0.66 | 0.646
NCI-H838 | 0.823 | 0.939 | 0.739 | 0.73 | 0.945 | 0.905 | 0.796 | 0.533 | 0.367 | 0.401 | 0.426 | 0.453 | 0.418 | 0.4 | 0.225 | 0.194 | 0.249 | 0.247
NCI-H1355 | 1.23 | 1.22 | 1.27 | 1.26 | 0.853 | 0.723 | 0.833 | – | 0.771 | 0.479 | 0.425 | 0.445 | 0.423 | 0.371 | 0.387 | 0.324 | 0.421 | 0.38
NCI-H1437 | 0.495 | 0.607 | 0.552 | 0.462 | 1.14 | 1.04 | 1.07 | 1.14 | 0.897 | 0.85 | 0.822 | 0.943 | 0.902 | 0.908 | 0.356 | 0.335 | 0.352 | 0.368
NCI-H1651 | 0.907 | 0.923 | 1.02 | 0.949 | 1.12 | 0.932 | 0.987 | 1.13 | 0.994 | 0.712 | 0.58 | 0.833 | 0.614 | 0.678 | 0.456 | 0.493 | 0.521 | 0.525
NCI-H1666 | 0.865 | 0.724 | 0.959 | 0.962 | 0.849 | 1.04 | 1.01 | 1.12 | 0.966 | 0.877 | 0.869 | 0.944 | 0.834 | 0.786 | 0.657 | 0.662 | 0.667 | 0.669
NCI-H1734 | 0.97 | 1.04 | 1.21 | 1.03 | 0.901 | 0.905 | 0.805 | – | 0.708 | 0.758 | 0.581 | 0.588 | 0.723 | 0.586 | 0.303 | 0.34 | 0.309 | 0.345
NCI-H1755 | 0.991 | 0.943 | 1.04 | 0.932 | 1.03 | 0.977 | 0.947 | 0.86 | 0.716 | 0.747 | 0.77 | 0.676 | 0.706 | 0.517 | 0.437 | 0.442 | 0.462 | 0.365
NCI-H1792 | 0.96 | 0.998 | 1.07 | 0.993 | 0.631 | 0.475 | 0.558 | 0.676 | 0.572 | 0.752 | 0.716 | 0.728 | 0.676 | 0.446 | 0.636 | 0.702 | 0.718 | 0.588
NCI-H1915 | 1 | 0.977 | 0.932 | 0.934 | 1.1 | 1.13 | 1.12 | – | 1.03 | 0.695 | 0.633 | 0.615 | 0.669 | 0.34 | 0.502 | 0.521 | 0.493 | 0.529
NCI-H1975 | 0.396 | 0.423 | 0.479 | 0.369 | 1.01 | 0.915 | 0.964 | 0.778 | 0.619 | 0.926 | 0.773 | 0.671 | 0.673 | 0.587 | 0.629 | 0.342 | 0.668 | 0.645
NCI-H1993 | 1.02 | 0.999 | 1.21 | 1.34 | 0.824 | 0.753 | – | 0.834 | 0.663 | 0.604 | 0.578 | 0.485 | 0.498 | 0.59 | 0.704 | 0.737 | 0.698 | 0.738
NCI-H2009 | 1.04 | 0.989 | 1.09 | 0.99 | 1.21 | 1.06 | 1.01 | 0.966 | 0.709 | 0.776 | 0.668 | 0.594 | 0.73 | 0.705 | 0.123 | 0.148 | 0.189 | 0.238
NCI-H2023 | 0.793 | 0.958 | 1.24 | 0.983 | 0.734 | 0.691 | 0.724 | 0.798 | 0.663 | 0.483 | 0.418 | 0.394 | 0.347 | 0.35 | 0.315 | 0.379 | 0.418 | 0.386
NCI-H2085 | 0.975 | 0.736 | 1.11 | 1.03 | 1.02 | 0.907 | 0.905 | 0.868 | 0.777 | 0.937 | 0.666 | 0.804 | 0.705 | 0.515 | 0.519 | – | 0.481 | 0.485
NCI-H2087 | 0.866 | 1.01 | 0.728 | 0.763 | 1 | 0.823 | 0.916 | 0.824 | 0.478 | 0.564 | 0.578 | 0.712 | 0.521 | 0.338 | 0.18 | 0.22 | 0.196 | 0.276
NCI-H2126 | 1.1 | 1.12 | 1.16 | 1.12 | 0.726 | 0.72 | 0.805 | 0.705 | 0.781 | 0.8 | 0.723 | 0.742 | 0.614 | 0.548 | 0.364 | 0.368 | 0.322 | 0.354
NCI-H2228 | 0.929 | 1.22 | 1.07 | 0.863 | 0.63 | 0.587 | 0.62 | 0.637 | 0.82 | 0.822 | 0.633 | 0.616 | 0.499 | 0.379 | 0.822 | 0.991 | 0.787 | 0.863
NCI-H2347 | 0.937 | 0.951 | 1.05 | 0.969 | 0.937 | 0.868 | 1.02 | 1.02 | 0.8 | 0.447 | – | 0.46 | 0.42 | 0.407 | 0.385 | 0.453 | 0.44 | 0.431
NCI-H2405 | 0.94 | 0.658 | 1.02 | 1 | – | 1.07 | 0.744 | 0.599 | 0.45 | 0.7 | 0.596 | 0.682 | 0.703 | 0.532 | 0.502 | 0.519 | 0.586 | 0.507
NCI-H3122 | 0.989 | 1.04 | 1.04 | 0.965 | 1.03 | 0.985 | 0.964 | 1.02 | 1.03 | 1.26 | 0.869 | 0.939 | 0.955 | 0.946 | 0.152 | 0.185 | 0.181 | 0.178
